Inhibition and IC50 data for 5 compounds are collected here from ChEMBL document CHEMBL2331529, “Design and Synthesis of Potent Bivalent Peptide Agonists Targeting the EphA2 Receptor” (ACS Med Chem Lett, 2013).

One may read the IC50 as the midpoint of a concentration-inhibition curve.

For assay [1], the target named is Ephrin type-A receptor 4 (Homo sapiens) (UniProt P54764). As to the kind of experiment: Agonist activity at IgG1 Fc region fused-immobilized EphA4 (unknown origin) assessed as inhibition of EphA4/ephrin-A5 AP interaction at 10 uM incubated for 3 hrs by ELISA. In general terms: ELISA stands for enzyme-linked immunosorbent assay.
Sequence of Ephrin type-A receptor 4 (Homo sapiens) (P54764 whole entry, the tested form may be a part): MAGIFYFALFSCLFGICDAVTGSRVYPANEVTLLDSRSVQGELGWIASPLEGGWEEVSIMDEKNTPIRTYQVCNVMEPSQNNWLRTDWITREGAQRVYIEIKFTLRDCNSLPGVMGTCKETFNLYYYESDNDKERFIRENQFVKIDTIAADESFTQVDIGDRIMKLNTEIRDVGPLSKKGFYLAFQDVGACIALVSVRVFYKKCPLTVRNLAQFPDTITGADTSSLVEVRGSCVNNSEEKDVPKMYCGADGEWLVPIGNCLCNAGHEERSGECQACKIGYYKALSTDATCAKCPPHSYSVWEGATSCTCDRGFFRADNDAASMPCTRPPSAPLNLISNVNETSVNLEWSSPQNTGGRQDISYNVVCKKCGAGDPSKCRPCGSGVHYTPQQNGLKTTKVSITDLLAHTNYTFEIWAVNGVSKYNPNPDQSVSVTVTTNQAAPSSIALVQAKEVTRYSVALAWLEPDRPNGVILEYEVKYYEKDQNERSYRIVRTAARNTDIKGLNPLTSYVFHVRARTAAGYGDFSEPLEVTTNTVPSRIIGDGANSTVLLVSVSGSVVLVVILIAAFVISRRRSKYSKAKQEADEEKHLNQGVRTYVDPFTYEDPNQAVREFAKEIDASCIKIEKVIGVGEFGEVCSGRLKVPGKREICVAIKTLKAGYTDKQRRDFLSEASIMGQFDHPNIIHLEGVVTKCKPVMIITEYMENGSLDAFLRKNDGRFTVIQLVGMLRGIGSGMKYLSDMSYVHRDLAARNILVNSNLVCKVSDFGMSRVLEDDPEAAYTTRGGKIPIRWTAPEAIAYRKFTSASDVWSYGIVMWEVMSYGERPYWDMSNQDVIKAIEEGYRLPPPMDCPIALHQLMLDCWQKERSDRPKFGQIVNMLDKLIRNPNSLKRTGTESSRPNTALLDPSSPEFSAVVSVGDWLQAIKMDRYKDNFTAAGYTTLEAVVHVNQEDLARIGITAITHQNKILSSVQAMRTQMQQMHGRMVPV
For assay [2], the target named is T1, Ephrin type-B receptor 2 (Homo sapiens) (UniProt P29323).
T1 sequence (whole entry): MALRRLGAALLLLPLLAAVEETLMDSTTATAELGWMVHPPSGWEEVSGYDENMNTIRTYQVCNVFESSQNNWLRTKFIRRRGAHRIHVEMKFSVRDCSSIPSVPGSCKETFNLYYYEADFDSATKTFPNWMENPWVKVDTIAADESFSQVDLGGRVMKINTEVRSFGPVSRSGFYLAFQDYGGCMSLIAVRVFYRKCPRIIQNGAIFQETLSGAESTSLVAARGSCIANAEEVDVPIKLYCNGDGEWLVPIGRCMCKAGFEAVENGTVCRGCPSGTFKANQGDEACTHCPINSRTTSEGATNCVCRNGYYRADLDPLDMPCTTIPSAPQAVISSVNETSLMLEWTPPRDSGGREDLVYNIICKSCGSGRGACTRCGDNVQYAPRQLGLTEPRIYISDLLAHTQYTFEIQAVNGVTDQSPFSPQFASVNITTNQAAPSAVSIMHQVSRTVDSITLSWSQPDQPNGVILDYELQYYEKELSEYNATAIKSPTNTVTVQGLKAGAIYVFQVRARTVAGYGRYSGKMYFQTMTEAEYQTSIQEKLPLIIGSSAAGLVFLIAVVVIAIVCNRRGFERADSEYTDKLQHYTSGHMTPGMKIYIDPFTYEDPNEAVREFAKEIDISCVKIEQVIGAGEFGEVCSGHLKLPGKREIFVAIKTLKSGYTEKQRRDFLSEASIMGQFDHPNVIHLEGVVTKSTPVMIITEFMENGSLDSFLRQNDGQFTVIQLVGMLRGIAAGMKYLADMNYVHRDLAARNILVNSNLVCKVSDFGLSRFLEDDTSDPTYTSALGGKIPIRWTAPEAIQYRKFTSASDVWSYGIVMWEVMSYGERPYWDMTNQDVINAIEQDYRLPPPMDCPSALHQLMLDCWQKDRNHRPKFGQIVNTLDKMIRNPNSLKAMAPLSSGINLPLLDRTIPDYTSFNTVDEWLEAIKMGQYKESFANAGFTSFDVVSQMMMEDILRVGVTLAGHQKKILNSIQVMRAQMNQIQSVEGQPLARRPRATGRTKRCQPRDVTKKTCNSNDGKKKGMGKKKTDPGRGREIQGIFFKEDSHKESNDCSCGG
As to the kind of experiment: Agonist activity at IgG1 Fc region fused-immobilized EphB2 (unknown origin) assessed as inhibition of EphB2/ephrin-B2 AP interaction at 10 uM incubated for 3 hrs by ELISA.

The target in another assay is Ephrin type-A receptor 2 (Homo sapiens, UniProt P29317). The experiment in a line: Agonist activity at IgG1 Fc region fused-immobilized EphA2 ectodomain (unknown origin) assessed as inhibition of EphA2/ephrin-A5 AP interaction incubated for 3 hrs by ELISA.
Sequence of Ephrin type-A receptor 2 (P29317 whole entry, the tested form may be a part): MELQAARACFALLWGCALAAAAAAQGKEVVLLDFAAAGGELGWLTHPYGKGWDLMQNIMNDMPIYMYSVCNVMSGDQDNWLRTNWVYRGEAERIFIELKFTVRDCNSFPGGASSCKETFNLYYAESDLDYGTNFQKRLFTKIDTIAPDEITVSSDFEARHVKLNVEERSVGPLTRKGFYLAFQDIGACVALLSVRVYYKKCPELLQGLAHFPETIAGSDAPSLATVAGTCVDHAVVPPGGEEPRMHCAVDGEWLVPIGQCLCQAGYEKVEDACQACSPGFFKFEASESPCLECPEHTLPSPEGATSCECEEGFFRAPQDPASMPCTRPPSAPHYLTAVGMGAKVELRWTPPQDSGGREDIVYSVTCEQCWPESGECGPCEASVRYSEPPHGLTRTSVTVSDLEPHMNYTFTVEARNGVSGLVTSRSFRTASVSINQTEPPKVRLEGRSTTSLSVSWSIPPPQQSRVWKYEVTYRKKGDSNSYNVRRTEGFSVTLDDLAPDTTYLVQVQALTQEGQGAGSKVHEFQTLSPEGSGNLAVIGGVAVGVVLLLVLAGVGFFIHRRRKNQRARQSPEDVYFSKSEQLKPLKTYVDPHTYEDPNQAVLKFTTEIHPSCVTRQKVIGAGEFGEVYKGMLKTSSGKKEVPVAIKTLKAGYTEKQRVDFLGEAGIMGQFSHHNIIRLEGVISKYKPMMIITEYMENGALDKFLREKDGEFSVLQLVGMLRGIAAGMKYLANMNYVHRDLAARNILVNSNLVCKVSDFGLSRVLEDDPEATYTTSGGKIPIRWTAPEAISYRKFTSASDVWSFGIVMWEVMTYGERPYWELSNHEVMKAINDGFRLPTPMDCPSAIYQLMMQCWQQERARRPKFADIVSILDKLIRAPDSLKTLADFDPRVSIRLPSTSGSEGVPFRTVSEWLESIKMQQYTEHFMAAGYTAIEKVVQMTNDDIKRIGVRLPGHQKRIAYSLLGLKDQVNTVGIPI

The source made the active and inactive calls. No cut-off for these calls is given here.

Turning to `CC(C)C[C@H](NC(=O)[C@H](C)NC(=O)[C@H](Cc1ccc(O)cc1)NC(=O)[C@@H]1CCCN1C(=O)CNC(=O)[C@H](C)NC(=O)[C@@H](NC(=O)[C@H](CO)NC(=O)[C@H](Cc1ccc(O)cc1)NC(=O)[C@H](CCCNC(=N)N)NC(=O)[C@H](CCCCNC(=O)CCCCCN)NC(=O)[C@H](CCCNC(=N)N)NC(=O)[C@H](Cc1ccc(O)cc1)NC(=O)[C@H](CO)NC(=O)[C@@H](NC(=O)[C@H](C)NC(=O)CNC(=O)[C@@H]1CCCN1C(=O)[C@H](Cc1ccc(O)cc1)NC(=O)[C@H](C)NC(=O)[C@H](CC(C)C)NC(=O)[C@H](Cc1c[nH]c2ccccc12)NC(=O)[C@@H](N)CO)C(C)C)C(C)C)C(=O)N[C@@H](Cc1c[nH]c2ccccc12)C(=O)N[C@@H](CO)C(=O)O`, the inhibition result in assay [1] and in assay [2] was “Active” throughout.
Consider H-SALAYPGAVSYR-OH, for which, at Ephrin type-A receptor 2, the IC50 was ≥ 100 µM.
Regarding H-SWLAAPGAVSYR-OH, the IC50 at Ephrin type-A receptor 2 is ≥ 100 µM.
In the case of H-SWLAYAGAVSYR-OH, on Ephrin type-A receptor 2, the IC50 is ≥ 100 µM.
Same read-out and setting: next, H-SWLSYPGAVSYR-OH: > 100 µM.
